Here are results for 36 compounds from US20070275932A1, “Aryl, heteroaromatic and bicyclic aryl nitrone compounds, prodrugs and pharmaceutical compositions of the same to treat human disorders” (Renovis, Inc., priority 2003, published 2007).

Structures can show the parent of a compound that is named as a salt. Where only a bound is given, the exact number is not on record here.

This assay can be described thus: Free radical-scavenging/antioxidant assay (DPPH). Type of assay: biochemical. The following applies: 50 μM DPPH in 80% methanol, absorbance at 520 nm, 24 h time point (steady state); read-out: EC50 (concentration at which a compound reduces by 50% the peak absorbance of DPPH at 520 nm). The method, then:
Nitrone compounds of the present invention were tested for their free-radical scavenging/antioxidant activity in an in vitro assay that is accepted by those skilled in the art as a model for conditions involving the generation of free radicals. The assay is based on a reaction between a free-radical donor, 2,2-diphenyl-1-picrylhydrazyl (DPPH), and a radical scavenger/antioxidant to be tested for free-radical scavenging activity. Upon donation of the free-radical electron to the purported radical scavenger, the peak visible absorbance of DPPH (515-520 nm) decreases so that optical density readings at this part of the visual spectrum reflect the progression of the following reaction: DPPH∩+AH→DPPH-H+A∩ where AH is a hypothetical radical scavenger/antioxidant. The assay is based on a protocol originally detailed in Brand-Williams, W. et al., 1995, Use of a Free Radical Method to Evaluate Antioxidant Activity, Lebensm. Wiss. Technol., 28:25-30, with further modifications described in L. R. Fukumoto and G. Mazza, 2000, Assessing Antioxidant and Prooxidant Activities of Phenolic Compounds, J. Agric. Food Chem., 48:3597-3604.
The antioxidant assay was performed using Perkin-Elmer 96-well, clear-bottom, black-wall plates (ordered from E & K Scientific Products) and a Tecan Safire absorbance plate reader. The positive controls were Trolox (6-hydroxy-2,5,7,8-tetramethylchromane-2-carboxylic acid, Sigma-Aldrich), BHA (2(3)-tert-butylhydroquinone monomethyl ether, Sigma-Aldrich), PBN (C-(phenyl)-N-(tert-butyl)nitrone, Sigma-Aldrich) and S-PBN (C-(2-sulfophenyl)-N-(tert-butyl)nitrone, sodium salt, prepared according to E. G. Janzen and R. V. Shetty, 1979, Tetrahedron Lett., 35: 3229-32), and the negative control (i.e., vehicle) was DMSO. In brief, 2 μL of 100×DMSO stock of the desired final concentration of each control or nitrone compound to be tested in the same batch was added to a separate well. To each well was then added 198 μL of a freshly made 50 μM DPPH (Sigma-Aldrich) solution in 80% methanol using a multi-channel pipette. The absorbance was immediately read on the plate reader at 520 nm and thereafter read periodically to assess kinetics until all reactions reached completion (i.e., steady state). Since the steady-state point was 24 h, the assay results are shown from the 24 h time point. The absorbance at 520 nm (OD) was plotted versus the concentrations of the controls and nitrone compounds to assess dose-response and interpolate the EC50 values of the controls and test compounds.
Background: The DPPH test is a chemical assay of radical scavenging.
Take `CC(C)(C)C(=O)Nc1cccc(/C=[N+](\[O-])C(C)(C)C)n1` [Example 51, N-(tert-Butyl)-C-[6-(2,2-dimethylpropanamido)pyridin-2-yl]nitrone]: the EC50 was more than 1000 µM. In the case of `O=[N+]([O-])c1ccc(SC2CCCC2)c(/C=[N+](\[O-])Cc2ccccc2)c1` [Example 31, N-Benzyl-C-[2-(cyclopentylthio)-5-nitrophenyl]nitrone], the EC50 was 500 to 1000 µM. On to `O=C(O)c1ccsc1/C=[N+](\[O-])C1CCCCC1` [Example 42, N-Cyclohexyl-C-(3-carboxythiophen-2-yl]nitrone], for which the EC50 fell in the range of 100 to 500 µM.

As to `Cc1ccc(Sc2ncccc2/C=[N+](\[O-])C(C)(C)C)cc1` [Example 43, N-(tert-Butyl)-C-[2-(4-methylphenylthio)pyridin-3-yl]nitrone], the EC50 is more than 1000 µM. The result for `Cc1c(C)c2c(c(C)c1O)CCC(C)(C(=O)O)O2` (stereo not drawn) [Trolox, 6-hydroxy-2,5,7,8-tetramethylchromane-2-carboxylic acid, reference compound] reads less than 10 µM; that for `CCSc1ccccc1/C=[N+](\[O-])C(C)(C)C` [Example 33, N-(tert-Butyl)-C-[2-(ethylthio)phenyl]nitrone], more than 1000 µM; that for `COc1cc(/C=[N+](\[O-])C(C)(C)C)c(C(=O)O)c(OC)c1` [Example 10, N-(tert-Butyl)-C-(2-carboxy-3,5-dimethoxyphenyl)nitrone], 500 to 1000 µM.

With `[O-]/[N+](=C\c1ccccc1N1CCOCC1)Cc1ccccc1` [Example 22, N-Benzyl-C-[2-(1-morpholino)phenyl]nitrone], the EC50 was more than 1000 µM. The result for `CSc1cc(C(F)(F)F)ccc1/C=[N+](\[O-])C(C)(C)C` [Example 35, N-(tert-Butyl)-C-[2-(methylthio)-4-(trifluoromethyl)phenyl]nitrone] reads more than 1000 µM; that for `CC(C)(C)[N+]([O-])=Cc1ccccc1` [PBN, C-(phenyl)-N-(tert-butyl)nitrone, reference compound], more than 1000 µM; that for `O=C(O)c1ccccc1/C=[N+](\[O-])C1CCCCC1` [Example 8, N-Cyclohexyl-C-(2-carboxyphenyl)nitrone], 10 to 100 µM. For the compound `[O-]/[N+](=C\c1cccnc1N1CCOCC1)Cc1ccccc1` [Example 48, N-Benzyl-C-[2-(1-morpholino)pyridin-3-yl]nitrone], the EC50 is more than 1000 µM.

`CC(C)(C)C(=O)Nc1cccc(/C=[N+](\[O-])C2CCCCC2)n1` [Example 52, N-Cyclohexyl-C-[6-(2,2-dimethylpropanamido)pyridin-2-yl]nitrone]: the EC50 fell in the range of 500 to 1000 µM.

Turning to `CC(C)(C)/[N+]([O-])=C/c1ccccc1-n1ccnc1` [Example 14, N-(tert-Butyl)-C-[2-(imidazol-1-yl)phenyl]nitrone], the EC50 was more than 1000 µM. Take `O=C(O)c1ccccc1/C=[N+](\[O-])Cc1ccccc1` [Example 9, N-Benzyl-C-(2-carboxyphenyl)nitrone]: the EC50 lay in the range of 10 to 100 µM.

On to `CC(C)(C)[N+]([O-])=Cc1ccccc1S(=O)(=O)O` [S-PBN, C-(2-sulfophenyl)-N-(tert-butyl)nitrone, sodium salt, reference compound], for which the EC50 is more than 1000 µM. As to `[O-]/[N+](=C\c1ccccc1N1CCN(c2ccc(C(F)(F)F)cn2)CC1)C1CCCCC1` [Example 24, N-Cyclohexyl-C-{2-[4-(5-(trifluoromethyl)pyridin-2-yl)piperazin-1-yl]phenyl}nitrone], the EC50 is 10 to 100 µM.

Regarding `CC(C)(C)/[N+]([O-])=C/c1sccc1C(=O)O` [Example 41, N-(tert-Butyl)-C-(3-carboxythiophen-2-yl)nitrone], the EC50 was 10 to 100 µM. Turning to `COC(=O)c1ccccc1/C=[N+](\[O-])Cc1ccccc1` [Example 3, N-Benzyl-C-[2-(methoxycarbonyl)phenyl]nitrone], the EC50 was in the range of 500 to 1000 µM. With `COC(=O)c1[nH]c2ccccc2c1/C=[N+](\[O-])C1CCCCC1` [Example 39, N-Cyclohexyl-C-[2-(methoxycarbonyl)-1H-indol-3-yl]nitrone], the EC50 is more than 1000 µM. Regarding `CC(C)(C)/[N+]([O-])=C/c1ccccc1N1CCOCC1` [Example 20, N-(tert-Butyl)-C-[2-(1-morpholino)phenyl]nitrone], the EC50 was in the range of 100 to 500 µM.

Take `COC(=O)c1[nH]c2ccccc2c1/C=[N+](\[O-])Cc1ccccc1` [Example 40, N-Benzyl-C-[2-(methoxycarbonyl)-1H-indol-3-yl]nitrone]: the EC50 is more than 1000 µM.

For `COC(=O)c1[nH]c2ccccc2c1/C=[N+](\[O-])C(C)(C)C` [Example 38, N-(tert-Butyl)-C-[2-(methoxycarbonyl)-1H-indol-3-yl]nitrone], the EC50 was more than 1000 µM. Regarding `COc1cc(/C=[N+](\[O-])Cc2ccccc2)c(C(=O)O)c(OC)c1` [Example 12, N-Benzyl-C-(2-carboxy-3,5-dimethoxyphenyl)nitrone], the EC50 is 10 to 100 µM. Consider `[O-]/[N+](=C\c1ccccc1N1CCOCC1)C1CCCCC1` [Example 21, N-Cyclohexyl-C-[2-(1-morpholino)phenyl]nitrone], for which the EC50 is 100 to 500 µM. With `COC(=O)c1c(/C=[N+](\[O-])Cc2ccccc2)cc(OC)cc1OC` [Example 6, N-Benzyl-C-[2-(methoxycarbonyl)-3,5-dimethoxyphenyl]nitrone], the EC50 is 100 to 500 µM.

As for `O=[N+]([O-])c1ccc(Sc2ccccn2)c(/C=[N+](\[O-])C2CCCCC2)c1` [Example 37, N-Cyclohexyl-C-[5-nitro-2-(pyridin-2-ylthio)phenyl]nitrone], the EC50 lay within 10 to 100 µM. For `[O-]/[N+](=C\c1ccccc1-n1cccn1)C1CCCCC1` [Example 18, N-Cyclohexyl-C-[2-(pyrazol-1-yl)phenyl]nitrone] the value was more than 1000 µM. As to `COc1cc(/C=[N+](\[O-])C2CCCCC2)c(C(=O)O)c(OC)c1` [Example 11, N-Cyclohexyl-C-(2-carboxy-3,5-dimethoxyphenyl)nitrone], the EC50 lay in the range of 10 to 100 µM. The result for `[O-]/[N+](=C\c1ccccc1-n1ccnc1)C1CCCCC1` [Example 15, N-Cyclohexyl-C-[2-(imidazol-1-yl)phenyl]nitrone] reads more than 1000 µM; that for `[O-]/[N+](=C\c1ccccc1Sc1ccc(Cl)cc1)C1CCCCC1` [Example 27, N-Cyclohexyl-C-[2-(4-chlorophenylthio)phenyl]nitrone], more than 1000 µM.

In the case of `[O-]/[N+](=C\c1ccccc1-n1cccn1)Cc1ccccc1` [Example 19, N-Benzyl-C-[2-(pyrazol-1-yl)phenyl]nitrone], the EC50 is more than 1000 µM. On to `[O-]/[N+](=C\c1ccccc1N1CCN(c2ccc(C(F)(F)F)cn2)CC1)Cc1ccccc1` [Example 25, N-Benzyl-C-{2-[4-(5-(trifluoromethyl)pyridin-2-yl)piperazin-1-yl]phenyl}nitrone], for which the EC50 is less than 10 µM. Take `CC(C)(C)C(=O)Nc1cccc(/C=[N+](\[O-])Cc2ccccc2)n1` [Example 53, N-Benzyl-C-[6-(2,2-dimethylpropanamido)pyridin-2-yl]nitrone]: the EC50 was in the range of 10 to 100 µM. On to `CSc1nc2ccccc2cc1/C=[N+](\[O-])C(C)(C)C` [Example 49, N-(tert-Butyl)-C-[2-(methylthio)quinolin-3-yl]nitrone], for which the EC50 lay in the range of 500 to 1000 µM. For `O=[N+]([O-])c1ccc(SC2CCCC2)c(/C=[N+](\[O-])C2CCCCC2)c1` [Example 30, N-Cyclohexyl-C-[2-(cyclopentylthio)-5-nitrophenyl]nitrone], the EC50 was more than 1000 µM.
